# From US20240083946A1, “SELF-ASSEMBLING PEPTIDES, NANOFIBERS, AND METHODS OF USE” (The Board of Regents of the University of Oklahoma, priority 2021, published 2024)
# Tested on: OVCAR-8 ovarian cancer cells
# Test: Toxicity of peptide sets and individual peptides to OVCAR-8 cells (relative ATP, live/dead imaging)
# Type: cell-based
# Settings: 6 hours, FIGS. 6A-B
# Method: Image analysis indicated green cells were living and red cells were dead (color not shown).
# Incubation of the peptides with OVCAR-8 ovarian cancer cells were incubated with the peptides of the [AA], [II], [WW] peptide sets. […] Red fluorescence (ethidium homodimer-1) was associated with loss of plasma membrane integrity whereas the green fluorescence correlated with intracellular esterase activity of metabolically active cells (color not shown in figures). Pyroptosis is a newly identified cell death modality characterized by the formation of large bubbles on the plasma membrane and cell swelling. Recently pyroptosis has been classified as a regulated cell death (RCD) by Nomenclature Committee on Cell Death (NCCD). Peptide-treated OVCAR-8 cells indicated pyroptotic morphology. One of the pathways mediating pyroptosis is through cleavage of caspase-3.
substance,measurement,value
KFFWWK,toxicity to OVCAR-8 cells,toxicity
